Measured values reported in ChEMBL document CHEMBL1142838, “Design and synthesis of phthalimide-type histone deacetylase inhibitors” (Bioorg Med Chem Lett, 2005).

Molecular target: Histone deacetylase 4 (Homo sapiens, UniProt P56524)
Sequence (P56524 whole entry): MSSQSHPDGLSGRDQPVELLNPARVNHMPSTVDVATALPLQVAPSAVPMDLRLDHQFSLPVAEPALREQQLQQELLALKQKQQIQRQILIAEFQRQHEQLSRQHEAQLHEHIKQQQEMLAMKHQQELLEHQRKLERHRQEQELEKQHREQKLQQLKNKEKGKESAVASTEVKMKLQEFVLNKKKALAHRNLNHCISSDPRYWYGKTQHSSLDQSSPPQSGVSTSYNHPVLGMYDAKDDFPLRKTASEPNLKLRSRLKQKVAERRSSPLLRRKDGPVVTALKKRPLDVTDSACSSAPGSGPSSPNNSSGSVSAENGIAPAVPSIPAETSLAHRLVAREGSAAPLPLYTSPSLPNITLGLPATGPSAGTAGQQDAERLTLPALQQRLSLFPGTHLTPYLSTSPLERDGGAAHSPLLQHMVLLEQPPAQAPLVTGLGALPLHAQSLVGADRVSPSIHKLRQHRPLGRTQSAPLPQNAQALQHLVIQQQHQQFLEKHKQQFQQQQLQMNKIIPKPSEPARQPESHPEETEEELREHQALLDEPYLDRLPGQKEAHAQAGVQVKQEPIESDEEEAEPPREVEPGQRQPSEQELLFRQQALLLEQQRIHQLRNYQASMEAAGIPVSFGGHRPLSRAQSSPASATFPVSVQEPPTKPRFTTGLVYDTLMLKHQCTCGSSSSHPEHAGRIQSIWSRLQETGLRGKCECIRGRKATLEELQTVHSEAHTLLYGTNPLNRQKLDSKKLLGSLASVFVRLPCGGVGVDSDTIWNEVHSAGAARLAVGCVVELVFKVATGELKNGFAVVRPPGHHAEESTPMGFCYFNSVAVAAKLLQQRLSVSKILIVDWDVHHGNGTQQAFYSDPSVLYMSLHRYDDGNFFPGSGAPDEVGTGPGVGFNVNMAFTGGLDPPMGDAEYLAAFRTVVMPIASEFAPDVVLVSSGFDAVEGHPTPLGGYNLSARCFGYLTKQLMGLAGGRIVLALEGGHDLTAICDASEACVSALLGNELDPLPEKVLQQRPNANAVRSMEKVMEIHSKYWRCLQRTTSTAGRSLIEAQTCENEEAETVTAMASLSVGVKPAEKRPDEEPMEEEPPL

Structure (SMILES) | IC50 [nM]
O=C(/C=C/c1ccc2c(c1)C(=O)N(Cc1ccccc1)C2=O)NO | 358

Molecular target: Histone deacetylase
Assay: Effective concentration for inhibition of histone deacetylase
Type: protein assay, Homo sapiens

EC50 [nM] | Structure (SMILES)
186 | COc1ccc(CN2C(=O)c3ccc(/C=C/C(=O)NO)cc3C2=O)cc1
6630 | O=C(NO)c1ccc2c(c1)C(=O)N(CCc1ccccc1)C2=O
474 | Cc1ccc(CN2C(=O)c3ccc(/C=C/C(=O)NO)cc3C2=O)cc1
125000 | O=C(NO)c1ccc2c(c1)C(=O)N(c1ccccc1)C2=O
291 | C[C@H](c1ccccc1)N1C(=O)c2ccc(/C=C/C(=O)NO)cc2C1=O
2090 | O=C(/C=C/c1ccc2c(c1)C(=O)N(C(c1ccccc1)c1ccccc1)C2=O)NO
2080 | O=C(/C=C/c1ccc2c(c1)C(=O)N(c1ccccc1)C2=O)NO
7890 | O=C(/C=C/c1ccc2c(c1)C(=O)N(CC(c1ccccc1)c1ccccc1)C2=O)NO
4160 | O=C(NO)c1ccc2c(c1)C(=O)N(Cc1ccccc1)C2=O
250 | C[C@@H](c1ccccc1)N1C(=O)c2ccc(/C=C/C(=O)NO)cc2C1=O
407 | O=C(CCc1ccc2c(c1)C(=O)N(Cc1ccccc1)C2=O)NO

Structure (SMILES) | EC50 [nM]
O=C(/C=C/c1ccc2c(c1)C(=O)N(CCc1ccccc1)C2=O)NO | 177
O=C(/C=C/c1ccc2c(c1)C(=O)N([C@@H](COC(=O)c1ccccc1)c1ccccc1)C2=O)NO | 3790
O=C(/C=C/c1ccc2c(c1)C(=O)N(Cc1ccccc1)C2=O)NO | 148
O=C(/C=C/c1ccc2c(c1)C(=O)N([C@H](COC(=O)c1ccccc1)c1ccccc1)C2=O)NO | 763

Molecular target: Histone deacetylase 1 (Homo sapiens, UniProt Q13547)
Sequence (Q13547 whole entry): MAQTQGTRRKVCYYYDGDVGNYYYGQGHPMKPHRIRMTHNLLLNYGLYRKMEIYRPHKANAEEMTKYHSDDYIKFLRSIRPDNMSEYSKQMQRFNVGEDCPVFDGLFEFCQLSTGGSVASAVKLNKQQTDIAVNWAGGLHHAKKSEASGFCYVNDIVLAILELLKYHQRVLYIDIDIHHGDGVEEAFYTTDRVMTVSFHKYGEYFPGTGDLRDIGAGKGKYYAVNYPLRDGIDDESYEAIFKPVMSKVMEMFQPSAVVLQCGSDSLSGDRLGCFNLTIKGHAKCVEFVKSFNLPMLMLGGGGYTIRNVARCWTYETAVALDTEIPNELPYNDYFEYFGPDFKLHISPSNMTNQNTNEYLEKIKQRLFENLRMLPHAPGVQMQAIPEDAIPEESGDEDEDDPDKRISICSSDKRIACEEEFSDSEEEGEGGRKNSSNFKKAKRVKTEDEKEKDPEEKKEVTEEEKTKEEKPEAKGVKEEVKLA

Structure (SMILES) | IC50 [nM]
O=C(/C=C/c1ccc2c(c1)C(=O)N(Cc1ccccc1)C2=O)NO | 572

Molecular target: T1, Protein deacetylase HDAC6 (Homo sapiens, UniProt Q9UBN7)
T1 sequence (Q9UBN7 whole entry): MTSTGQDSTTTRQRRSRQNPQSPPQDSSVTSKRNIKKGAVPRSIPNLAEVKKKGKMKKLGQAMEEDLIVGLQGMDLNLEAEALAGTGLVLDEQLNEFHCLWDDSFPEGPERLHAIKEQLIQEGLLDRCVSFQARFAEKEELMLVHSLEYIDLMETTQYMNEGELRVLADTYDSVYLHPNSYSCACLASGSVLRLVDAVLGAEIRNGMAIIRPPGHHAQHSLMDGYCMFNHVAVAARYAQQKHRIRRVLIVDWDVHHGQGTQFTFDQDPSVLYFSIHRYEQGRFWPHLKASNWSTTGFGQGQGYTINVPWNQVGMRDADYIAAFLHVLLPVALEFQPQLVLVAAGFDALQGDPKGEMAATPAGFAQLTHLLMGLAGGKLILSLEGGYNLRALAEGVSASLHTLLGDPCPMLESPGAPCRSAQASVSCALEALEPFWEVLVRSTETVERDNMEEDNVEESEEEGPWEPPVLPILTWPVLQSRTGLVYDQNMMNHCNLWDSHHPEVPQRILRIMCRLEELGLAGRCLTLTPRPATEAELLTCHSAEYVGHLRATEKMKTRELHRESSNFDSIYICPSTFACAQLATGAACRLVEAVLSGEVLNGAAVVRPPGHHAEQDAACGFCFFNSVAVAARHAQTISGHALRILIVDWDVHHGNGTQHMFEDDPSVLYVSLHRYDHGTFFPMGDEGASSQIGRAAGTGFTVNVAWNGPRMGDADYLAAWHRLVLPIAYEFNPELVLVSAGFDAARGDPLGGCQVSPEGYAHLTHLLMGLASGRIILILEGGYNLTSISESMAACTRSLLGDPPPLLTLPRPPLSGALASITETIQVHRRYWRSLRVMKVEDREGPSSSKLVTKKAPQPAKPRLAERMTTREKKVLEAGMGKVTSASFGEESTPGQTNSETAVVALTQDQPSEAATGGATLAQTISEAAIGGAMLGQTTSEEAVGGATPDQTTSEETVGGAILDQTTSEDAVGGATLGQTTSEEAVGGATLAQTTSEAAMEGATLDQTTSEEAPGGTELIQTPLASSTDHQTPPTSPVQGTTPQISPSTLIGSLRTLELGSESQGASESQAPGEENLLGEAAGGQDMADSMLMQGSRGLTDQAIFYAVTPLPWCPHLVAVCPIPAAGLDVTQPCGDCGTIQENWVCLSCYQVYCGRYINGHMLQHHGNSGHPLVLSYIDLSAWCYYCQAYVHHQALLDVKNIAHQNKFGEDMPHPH

Structure (SMILES) | IC50 [nM]
O=C(/C=C/c1ccc2c(c1)C(=O)N(Cc1ccccc1)C2=O)NO | 709
